Measured values from patent publication US12582654B2, “Cyano-substituted pyridine and cyano-substituted pyrimidine compound and preparation method therefor and application thereof” (BEIJING SCITECH-MQ PHARMACEUTICALS LIMITED, priority 2019, dated 2026).

Tests used:
FGFR4 V550L kinase = FGFR4 V550L kinase (Homo sapiens, UniProt P22455, V550L); assay: Inhibition of FGFR4 V550L mutant kinase activity (ULight-labeled PolyGT, EU665/EU615 reading); format: biochemical; settings: FGFR4 V550L kinase 1 nM, ATP 10 μM, enzymatic reaction 2 hours
Summary of the method: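 TR-FRET kinase assay: 1 nM FGFR4 V550L, 10 μM ATP, 100 nM ULight-PolyGT substrate, 2 h at room temperature after 5 min compound–enzyme preincubation, 1% DMSO. Compound tested as 11-point 3-fold dilution from 2.5 μM to 0.042 nM final. Signal as EU665/EU615 ratio; IC50 fitted from % inhibition.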

FGFR4 kinase = FGFR4 kinase (Homo sapiens, UniProt P22455); assay: Inhibition of FGFR4 kinase activity (ULight-labeled JAK-1 peptide, EU665/EU615 reading); format: biochemical; settings: FGFR4 kinase 3.85 nM, ATP 100 μM, enzymatic reaction 2 hours
Summary of the method: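 TR-FRET kinase assay using 3.85 nM FGFR4, 100 μM ATP and 100 nM ULight-JAK-1 (Tyr1023) peptide; 5 min enzyme–compound preincubation, then 2 h at room temperature. Compounds at 11 3-fold dilutions from 2.5 μM down to 0.042 nM, 1% DMSO. IC50 from EU665/EU615 ratio inhibition curves.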

Ba/F3 ETV6-FGFR4 cells = target: T1, Ba/F3 ETV6-FGFR4 cells (Homo sapiens, UniProt P22455); assay: Inhibition of cell proliferation (CCK-8), Ba/F3 ETV6-FGFR4 cells; format: cell-based; settings: 72 hours of incubation, read-out: Ba/F3 ETV6-FGFR4 IC50
T1 construct: fused on or other part: N-terminal part of ETV6 (TEL), the oligomerising partner that makes the FGFR4 kinase constitutively active; P41212 (Transcription factor ETV6)
Summary of the method: (§1)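 Ba/F3 cells expressing ETV6-FGFR4 or ETV6-FGFR4-V550L exposed for 72 h to 9 concentrations from 4-fold serial dilution (0.25% DMSO final). Viability by CCK-8, OD 450 nm after 1–2 h at 37 °C, relative to untreated and cell-free blanks; IC50 from curve fitting.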

[1] = target: T2, Ba/F3 ETV6-FGFR4-V550L cells (Homo sapiens, UniProt P22455, V550L, cells depend on it); assay: Inhibition of cell proliferation (CCK-8), Ba/F3 ETV6-FGFR4-V550L cells; format: cell-based; settings: 72 hours of incubation, read-out: Ba/F3 ETV6-FGFR4-V550L IC50
T2 construct: fused on or other part: N-terminal part of ETV6 (TEL), the oligomerising partner of the fusion; already named as the first entry; P41212 (Transcription factor ETV6)
Summary of the method: as §1

T1 sequence (P22455 whole entry, change not shown, the tested form may be a part): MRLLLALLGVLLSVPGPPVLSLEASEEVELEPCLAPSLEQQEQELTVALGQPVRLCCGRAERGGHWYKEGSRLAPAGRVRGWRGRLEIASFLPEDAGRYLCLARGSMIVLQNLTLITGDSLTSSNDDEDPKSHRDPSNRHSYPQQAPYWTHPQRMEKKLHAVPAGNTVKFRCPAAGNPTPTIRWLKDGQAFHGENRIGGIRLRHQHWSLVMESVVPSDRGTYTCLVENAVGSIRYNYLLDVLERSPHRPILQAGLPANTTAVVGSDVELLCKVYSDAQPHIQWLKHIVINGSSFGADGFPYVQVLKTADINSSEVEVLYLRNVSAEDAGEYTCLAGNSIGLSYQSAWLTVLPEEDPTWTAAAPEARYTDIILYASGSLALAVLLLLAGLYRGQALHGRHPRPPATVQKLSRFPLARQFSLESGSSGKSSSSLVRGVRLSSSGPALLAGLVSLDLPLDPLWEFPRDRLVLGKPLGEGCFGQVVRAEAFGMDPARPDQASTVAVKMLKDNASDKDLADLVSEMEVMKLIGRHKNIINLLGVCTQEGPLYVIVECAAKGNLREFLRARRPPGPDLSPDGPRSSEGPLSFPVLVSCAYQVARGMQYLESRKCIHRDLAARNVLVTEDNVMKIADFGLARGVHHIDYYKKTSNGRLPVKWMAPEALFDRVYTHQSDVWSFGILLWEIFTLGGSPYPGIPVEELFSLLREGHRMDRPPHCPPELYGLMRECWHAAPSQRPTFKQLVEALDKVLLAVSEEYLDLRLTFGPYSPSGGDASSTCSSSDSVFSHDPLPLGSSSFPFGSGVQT
T2 sequence (P22455 whole entry V550L, the tested form may be a part): as the sequence (P22455 whole entry, change not shown, the tested form may be a part) above, with V550L counted along it
FGFR4 kinase, sequence (P22455 22-802): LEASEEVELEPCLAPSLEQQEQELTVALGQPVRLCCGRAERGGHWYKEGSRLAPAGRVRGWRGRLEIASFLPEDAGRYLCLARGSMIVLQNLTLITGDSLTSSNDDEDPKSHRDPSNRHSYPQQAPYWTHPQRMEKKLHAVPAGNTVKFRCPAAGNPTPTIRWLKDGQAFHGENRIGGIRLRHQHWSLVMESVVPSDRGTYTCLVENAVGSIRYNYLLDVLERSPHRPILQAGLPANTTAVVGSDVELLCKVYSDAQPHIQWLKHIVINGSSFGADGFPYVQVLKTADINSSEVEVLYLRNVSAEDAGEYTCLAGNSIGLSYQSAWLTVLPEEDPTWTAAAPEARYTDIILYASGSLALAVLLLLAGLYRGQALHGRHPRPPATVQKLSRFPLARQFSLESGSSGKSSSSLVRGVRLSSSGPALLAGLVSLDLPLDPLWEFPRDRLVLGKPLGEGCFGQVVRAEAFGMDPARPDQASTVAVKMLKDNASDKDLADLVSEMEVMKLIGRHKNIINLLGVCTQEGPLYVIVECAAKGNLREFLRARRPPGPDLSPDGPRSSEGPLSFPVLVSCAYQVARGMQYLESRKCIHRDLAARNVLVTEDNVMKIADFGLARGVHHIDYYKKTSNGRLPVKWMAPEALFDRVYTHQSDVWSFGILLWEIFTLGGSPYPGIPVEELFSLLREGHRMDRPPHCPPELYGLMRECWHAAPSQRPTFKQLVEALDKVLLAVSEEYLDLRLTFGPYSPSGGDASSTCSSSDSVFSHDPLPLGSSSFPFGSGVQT
FGFR4 V550L kinase, sequence (P22455 22-802 V550L): as the sequence (P22455 22-802) above, with V529L counted along it

C=CC(=O)Nc1cc(N2CCC(N(C)CCO)CC2)ccc1Nc1ncc(C#N)c(Nc2ccccc2OC(C)C)n1 [Example 60, N-(2-((5-cyano-4-((2-isopropoxyphenyl)amino)pyrimidin-2-yl)amino)-5-(4-((2-hydroxyethyl) (methyl)amino)piperidin-1-yl)phenyl) acrylamide]
IC50 (FGFR4 V550L kinase): ≤ 0.01 µM | IC50 (FGFR4 kinase): 0.01 to 0.05 µM | GI50 (Ba/F3 ETV6-FGFR4 cells): ≤ 0.01 µM | GI50 [1]: ≤ 0.01 µM

C=CC(=O)Nc1cc(N2CCC(N(C)CCF)CC2)ccc1Nc1ncc(C#N)c(Nc2ccccc2OC(C)C)n1 [Example 61, N-(2-((5-cyano-4-((2-isopropoxyphenyl)amino)pyrimidin-2-yl)amino)-5-(4-((2-fluoroethyl) (methyl)amino)piperidin-1-yl)phenyl) acrylamide]
IC50 (FGFR4 V550L kinase): ≤ 0.01 µM | IC50 (FGFR4 kinase): 0.01 to 0.05 µM | GI50 (Ba/F3 ETV6-FGFR4 cells): ≤ 0.01 µM | GI50 [1]: ≤ 0.01 µM

C=CC(=O)Nc1cc(N2CCC(N(C)C3CCC3)CC2)ccc1Nc1ncc(C#N)c(Nc2ccccc2OC(C)C)n1 [Example 62, N-(2-((5-cyano-4-((2-isopropoxyphenyl)amino)pyrimidin-2-yl)amino)-5-(4-(cyclobutyl(methyl)amino)piperidin-1-yl)phenyl) acrylamide]
IC50 (FGFR4 V550L kinase): 0.01 to 0.05 µM | IC50 (FGFR4 kinase): 0.01 to 0.05 µM | GI50 (Ba/F3 ETV6-FGFR4 cells): ≤ 0.01 µM | GI50 [1]: ≤ 0.01 µM

C=CC(=O)Nc1cc(N2CCC(N(C)C3CC3)CC2)ccc1Nc1ncc(C#N)c(Nc2ccccc2OC(C)C)n1 [Example 63, N-(2-((5-cyano-4-((2-isopropoxyphenyl)amino)pyrimidin-2-yl)amino)-5-(4-(cyclopropyl (methyl)amino)piperidin-1-yl)phenyl) acrylamide]
IC50 (FGFR4 V550L kinase): 0.01 to 0.05 µM | IC50 (FGFR4 kinase): ≤ 0.01 µM | GI50 (Ba/F3 ETV6-FGFR4 cells): ≤ 0.01 µM | GI50 [1]: ≤ 0.01 µM

C=CC(=O)Nc1cc(N2CCC(N3CCC(F)CC3)CC2)ccc1Nc1ncc(C#N)c(Nc2ccccc2OC(C)C)n1 [Example 64, N-(2-((5-cyano-4-((2-isopropoxyphenyl)amino)pyrimidin-2-yl)amino)-5-(4-fluoro-[1,4-bipiperidin]-1‘- yl)phenyl) acrylamide]
IC50 (FGFR4 V550L kinase): 0.01 to 0.05 µM | IC50 (FGFR4 kinase): 0.01 to 0.05 µM | GI50 (Ba/F3 ETV6-FGFR4 cells): ≤ 0.01 µM | GI50 [1]: ≤ 0.01 µM

C=CC(=O)Nc1cc(N2CCC(N3CCC(O)CC3)CC2)ccc1Nc1ncc(C#N)c(Nc2ccccc2OC(C)C)n1 [Example 65, N-(2-((5-cyano-4-((2-isopropoxyphenyl)amino)pyrimidin-2-yl)amino)-5-(4-hydroxy-[1,4-bipiperidin]-1′-yl)phenyl) acrylamide]
IC50 (FGFR4 V550L kinase): ≤ 0.01 µM | IC50 (FGFR4 kinase): 0.01 to 0.05 µM | GI50 (Ba/F3 ETV6-FGFR4 cells): ≤ 0.01 µM | GI50 [1]: ≤ 0.01 µM

C=CC(=O)Nc1cc(N2CCC(N3CCC(C#N)CC3)CC2)ccc1Nc1ncc(C#N)c(Nc2ccccc2OC(C)C)n1 [Example 66, N-(2-((5-cyano-4-((2-isopropoxyphenyl)amino)pyrimidin-2-yl)amino)-5-(4-cyano-[1,4-bipiperidin]-1′-yl)phenyl) acrylamide]
IC50 (FGFR4 V550L kinase): 0.01 to 0.05 µM | IC50 (FGFR4 kinase): ≤ 0.01 µM | GI50 (Ba/F3 ETV6-FGFR4 cells): ≤ 0.01 µM | GI50 [1]: ≤ 0.01 µM

C=CC(=O)Nc1cc(N2CCC(N(C)CC(C)(C)O)CC2)ccc1Nc1ncc(C#N)c(Nc2ccccc2OC(C)C)n1 [Example 67, N-(2-((5-cyano-4-((2-isopropoxyphenyl)amino)pyrimidin-2-yl)amino)-5-(4-((2-hydroxy-2-methylpropyl) (methyl)amino)piperidin-1-yl)phenyl) acrylamide]
IC50 (FGFR4 V550L kinase): ≤ 0.01 µM | IC50 (FGFR4 kinase): 0.01 to 0.05 µM | GI50 (Ba/F3 ETV6-FGFR4 cells): ≤ 0.01 µM | GI50 [1]: ≤ 0.01 µM

C=CC(=O)Nc1cc(N2CCC(N(C)CCCO)CC2)ccc1Nc1ncc(C#N)c(Nc2ccccc2OC(C)C)n1 [Example 68, N-(2-((5-cyano-4-((2-isopropoxyphenyl)amino)pyrimidin-2-yl)amino)-5-(4-((3-hydroxypropyl) (methyl)amino)piperidin-1-yl)phenyl) acrylamide]
IC50 (FGFR4 V550L kinase): ≤ 0.01 µM | IC50 (FGFR4 kinase): ≤ 0.01 µM | GI50 (Ba/F3 ETV6-FGFR4 cells): ≤ 0.01 µM | GI50 [1]: ≤ 0.01 µM

C=CC(=O)Nc1cc(N2CCC(N(C)CCCOC)CC2)ccc1Nc1ncc(C#N)c(Nc2ccccc2OC(C)C)n1 [Example 69, N-(2-((5-cyano-4-((2-isopropoxyphenyl)amino)pyrimidin-2-yl)amino)-5-(4-((3-methoxypropyl) (methyl)amino)piperidin-1-yl)phenyl) acrylamide]
IC50 (FGFR4 V550L kinase): ≤ 0.01 µM | IC50 (FGFR4 kinase): ≤ 0.01 µM | GI50 (Ba/F3 ETV6-FGFR4 cells): ≤ 0.01 µM | GI50 [1]: ≤ 0.01 µM

C=CC(=O)Nc1cc(N2CCC(N3CCC3)CC2)ccc1Nc1ncc(C#N)c(Nc2ccccc2OC(C)C)n1 [Example 70, N-(5-(4-(azetidin-1-yl)piperidin-1-yl)-2-((5-cyano-4-((2-isopropoxyphenyl)amino)pyrimidin-2-yl)amino)phenyl) acrylamide]
IC50 (FGFR4 V550L kinase): ≤ 0.01 µM | IC50 (FGFR4 kinase): 0.05 to 0.1 µM | GI50 (Ba/F3 ETV6-FGFR4 cells): ≤ 0.01 µM | GI50 [1]: ≤ 0.01 µM

C=CC(=O)Nc1cc(N2CCC(N3CCC(F)(F)CC3)CC2)ccc1Nc1ncc(C#N)c(Nc2ccccc2OC(C)C)n1 [Example 71, N-(2-((5-cyano-4-((2-isopropoxyphenyl)amino)pyrimidin-2-yl)amino)-5-(4,4-difluoro-[1,4-bipiperidin]-1′-yl)phenyl) acrylamide]
IC50 (FGFR4 V550L kinase): 0.05 to 0.1 µM | IC50 (FGFR4 kinase): ≤ 0.01 µM | GI50 (Ba/F3 ETV6-FGFR4 cells): ≤ 0.01 µM | GI50 [1]: 0.01 to 0.05 µM

C=CC(=O)Nc1cc(N2CCC(N(C)C3COC3)CC2)ccc1Nc1ncc(C#N)c(Nc2ccccc2OC(C)C)n1 [Example 72, N-(2-((5-cyano-4-((2-isopropoxyphenyl)amino)pyrimidin-2-yl)amino)-5-(4-(methyl(oxetan-3-yl)amino)piperidin-1-yl)phenyl) acrylamide]
IC50 (FGFR4 V550L kinase): 0.01 to 0.05 µM | IC50 (FGFR4 kinase): ≤ 0.01 µM | GI50 (Ba/F3 ETV6-FGFR4 cells): ≤ 0.01 µM | GI50 [1]: ≤ 0.01 µM

C=CC(=O)Nc1cc(N2CCC(N(C)CCSC)CC2)ccc1Nc1ncc(C#N)c(Nc2ccccc2OC(C)C)n1 [Example 73]
IC50 (FGFR4 V550L kinase): ≤ 0.01 µM | IC50 (FGFR4 kinase): ≤ 0.01 µM | GI50 (Ba/F3 ETV6-FGFR4 cells): ≤ 0.01 µM | GI50 [1]: ≤ 0.01 µM

C=CC(=O)Nc1cc(N2CCC(N(C)CCCSC)CC2)ccc1Nc1ncc(C#N)c(Nc2ccccc2OC(C)C)n1 [Example 74]
IC50 (FGFR4 V550L kinase): ≤ 0.01 µM | IC50 (FGFR4 kinase): ≤ 0.01 µM | GI50 (Ba/F3 ETV6-FGFR4 cells): ≤ 0.01 µM | GI50 [1]: 0.01 to 0.05 µM

C=CC(=O)Nc1cc(N2CCC(N(C)CCCS(C)(=O)=O)CC2)ccc1Nc1ncc(C#N)c(Nc2ccccc2OC(C)C)n1 [Example 75, N-(2-((5-cyano-4-((2-isopropoxyphenyl)amino)pyrimidin-2-yl)amino)-5-(4-(methyl(3-(methylsulfonyl)propyl)amino)piperidin-1-yl)phenyl) acrylamide]
IC50 (FGFR4 V550L kinase): ≤ 0.01 µM | IC50 (FGFR4 kinase): ≤ 0.01 µM | GI50 (Ba/F3 ETV6-FGFR4 cells): ≤ 0.01 µM | GI50 [1]: ≤ 0.01 µM

C=CC(=O)Nc1cc(N2CCC(N3CCS(=O)(=O)CC3)CC2)ccc1Nc1ncc(C#N)c(Nc2ccccc2OC(C)C)n1 [Example 76, N-(2-((5-cyano-4-((2-isopropoxyphenyl)amino)pyrimidin-2-yl)amino)-5-(4-(1,1-dioxidothiomorpholino)piperidin-1-yl)phenyl) acrylamide]
IC50 (FGFR4 V550L kinase): 0.01 to 0.05 µM | IC50 (FGFR4 kinase): 0.01 to 0.05 µM | GI50 (Ba/F3 ETV6-FGFR4 cells): ≤ 0.01 µM | GI50 [1]: ≤ 0.01 µM

C=CC(=O)Nc1cc(N2CCC(N(C)C3CCOC3)CC2)ccc1Nc1ncc(C#N)c(Nc2ccccc2OC(C)C)n1 (stereo not drawn) [Example 77, N-(2-((5-cyano-4-((2-isopropoxyphenyl)amino)pyrimidin-2-yl)amino)-5-(4-(methyl (tetrahydrofuran-3-yl)amino)piperidin-1-yl)phenyl) acrylamide]
IC50 (FGFR4 V550L kinase): ≤ 0.01 µM | IC50 (FGFR4 kinase): ≤ 0.01 µM | GI50 (Ba/F3 ETV6-FGFR4 cells): ≤ 0.01 µM | GI50 [1]: ≤ 0.01 µM

C=CC(=O)Nc1cc(N2CCC(N(C)C3CCOCC3)CC2)ccc1Nc1ncc(C#N)c(Nc2ccccc2OC(C)C)n1 [Example 78, N-(2-((5-cyano-4-((2-isopropoxyphenyl)amino)pyrimidin-2-yl)amino)-5-(4-(methyl(tetrahydro-2H-pyran-4-yl)amino)piperidin-1-yl)phenyl) acrylamide]
IC50 (FGFR4 V550L kinase): ≤ 0.01 µM | IC50 (FGFR4 kinase): ≤ 0.01 µM | GI50 (Ba/F3 ETV6-FGFR4 cells): ≤ 0.01 µM | GI50 [1]: ≤ 0.01 µM

C=CC(=O)Nc1cc(N2CCC(N3CCN(C)CC3)CC2)ccc1Nc1ncc(C#N)c(Nc2ccccc2CC(C)C)n1 [Example 79, N-(2-((5-cyano-4-((2-isobutylphenyl)amino)pyrimidin-2-yl)amino)-5-(4-(4-methylpiperazin-1-yl)piperidin-1-yl)phenyl)acrylamide]
IC50 (FGFR4 V550L kinase): 0.05 to 0.1 µM | IC50 (FGFR4 kinase): 0.01 to 0.05 µM | GI50 (Ba/F3 ETV6-FGFR4 cells): 0.01 to 0.05 µM | GI50 [1]: 0.01 to 0.05 µM

C=CC(=O)Nc1cc(N2CCC(N3CCN(C)CC3)CC2)ccc1Nc1ncc(C#N)c(Nc2ccccc2S(=O)(=O)C(C)C)n1 [Example 80, N-(2-((5-cyano-4-((2-(isopropylsulfonyl)phenyl)amino)pyrimidin-2-yl)amino)-5-(4-(4-methylpiperazin-1-yl)piperidin-1-yl)phenyl) acrylamide]
IC50 (FGFR4 V550L kinase): ≤ 0.01 µM | IC50 (FGFR4 kinase): ≤ 0.01 µM | GI50 (Ba/F3 ETV6-FGFR4 cells): ≤ 0.01 µM | GI50 [1]: ≤ 0.01 µM
